Test results as given in patent US9539298B2, “Lissencephaly therapeutic agent” (OSAKA CITY UNIVERSITY, priority 2010, dated 2017).

Columns and labels:
[1] = system: LIS1 heterozygous mice (Lis1+/−) embryos; experiment: Apoptosis in mouse embryo brains (TUNEL staining); assay type: in vivo; details: 100 μg/g IP to pregnant mice on alternate days from E9.5, read at E15.5, FIG. 9
Procedure: A neo(−)129S-Pafah1b1^tm2Awb/J homozygous male mouse lacking neo gene was mated with five homozygous EII-Cre transgenic female mice (FVB/N-Tg (EIIa-cre) C5379Lmgd/J, The Jackson Laboratory) by raising them in the same mouse cage. In total, six sets of mouse cages were prepared for the mating experiment. Plug check (confirmation of mating) was carried out every morning between 7 and 10 am, thereby determining the gestation cycle. SNJ-1945 was dissolved in dimethyl sulfoxide (DMSO) at a concentration of 100 mg/ml, and intraperitoneally injected to the pregnant mice carrying LIS1 heterozygous mice (Lis1^+/−) and the pregnant mice carrying control mice (normal mouse embryos), so that the administration amount became 100 μg per gram of body weight on alternate days from Day 9.5 of the embryonic period (E9.5). On Day 15.5 of the embryonic period (E15.5), the pregnant mice were killed by cervical fracture, and the mouse embryos were removed and immobilized for 24 hours by 4% paraformaldehyde (Wako: 162-16065). After substitution with PBS, paraffin embedding was performed by a standard method. The tissue block was cut into 5 μm pieces. Each piece was adhered to an APS-coated slide glass. After deparaffinization, 20 μg/ml proteinase K/PBS treatment was conducted for 15 minutes at room temperature, and 3% H2O2/PBS treatment was performed for ten minutes at room temperature. […]

[2] = system: Lis1+/− mouse embryonic fibroblasts (MEF); experiment: Change in LIS1 protein amount in cells by SNJ-1945 (western blotting); assay type: cell-based; details: Lis1+/− MEF treated with SNJ-1945, western blotting, FIG. 1
Procedure: Fibroblasts (MEF; mouse embryonic fibroblasts) were established from five each of LIS1 gene hetero-deficient and wild-type mice (12.5- to 14.5-day-old embryos). The fibroblasts were established as follows. Pregnant mice were killed by cervical fracture, and the mouse embryos were immediately isolated under a germ-free condition. After the heads and visceral tissues were removed with tweezers, the mouse embryos were dissected with scissors. 10 ml of Trypsin-EDTA (Gibco, 25200) was added to each dissected tissue fraction, and the resulting liquid was placed in a 50 ml plastic tube (Nunc, 373687) to be subjected to 30-minute incubation at 37° C. After incubation, 10 ml of fetal bovine serum (Equitech-Bio, Inc., SFBM30-1798) was added, followed by pipetting with a 10 ml pipette (Nunc, 159633), thereby isolating the cells. After the cells were allowed to stand at room temperature for 5 minutes, the supernatant was collected. […]
Using the cells, the influence of SNJ-1945 on the LIS protein amount in each cell was analyzed as follows. […] After determination of protein quantity, 10 μg of protein was placed on each lane. After isolation using a 10% acrylic gel (SDS-PAGE), the protein was transferred to an Immobilon membrane (Millipore, IPVH00010), and LIS and DIC (dynein intermediate chain: reflecting the dynein amount) were detected. […] was detected to be used as a protein amount reference. […]

For `COCCOCCOC(=O)N[C@@H](CC(C)C)C(=O)N[C@@H](Cc1ccccc1)C(=O)C(=O)NC1CC1` [compound 17, ((1S)-1-((((1S)-1-Benzyl-2,3-dioxo-3-(cyclopropylamino)propyl)amino)carbonyl)-3-methylbutyl)carbamic acid 5-methoxy-3-oxapentyl ester], the “apoptosis in embryo brain (TUNEL)” value [1] was “significantly reduced” and the “LIS protein amount in cells” value [2] was “the decrease in the LIS protein amount was recovered”.
